Experimental data reported in paper PMC5811606, “Characterization of ^111In-labeled Glucose-Dependent Insulinotropic Polypeptide as a Radiotracer for Neuroendocrine Tumors” (Scientific Reports, 2018).
Like-named read-outs stand apart in the source and are kept apart here.

Experiment: Peptide dose escalation study, BHK-GIPR tumor mice
Type: in vivo, BALB/c nude mice
Details: female, iv, total radioactivity; for tissue to tissue ratio at 4 h: BHK-GIPR tumor / blood, read-out: Tumor/Blood
Protocol: All animal experiments were approved by the Animal Welfare Body of the Radboud University, Nijmegen, The Netherlands and carried out in accordance with their guidelines. Six to eight weeks old, female BALB/c nude mice and C3H mice were purchased from Janvier labs (Le Genest Saint Isle, France). For all in vivo experiments, 6-8 weeks old female BALB/c nude mice were injected subcutaneously in the right shoulder with 0.2 ml of a 2.5 × 10^7 cells/ml suspension of BHK-GIPR transfected cells or with 0.2 ml of a 2.5 × 10^7 cells/ml suspension of NES2Y cells mixed with matrigel (2:1) in the right shoulder. When the tumor reached a diameter of 2-5 mm, mice were randomly divided in groups.
To determine the optimal peptide dose of [Lys^37(DTPA)]N-acetyl-GIP1-42, BHK-GIPR transfected tumor bearing BALB/c nude mice (n = 5/group) were injected intravenously with approximately 3 MBq [Lys^37(^111In-DTPA)]N-acetyl-GIP1-42 (0.05 µg) in the tail vein and were co-injected with escalating amounts of unlabeled [Lys^37(DTPA)]N-acetyl-GIP1-42 (0.05 µg – 1.95 µg), resulting in final peptide doses ranging from 0.1 to 2 µg/mouse (0.02 – 0.4 nmol/mouse) (5 groups, n = 5/group). Four hours after injection, mice were euthanized by CO2/O2 suffocation and tumors and other relevant tissues (heart, muscle, lung, spleen, pancreas, kidney, liver, stomach and duodenum) were dissected, weighed and measured in a well type gamma counter. The percentage injected dose per gram of tissue (%ID/g) was determined for each tissue.

`CC[C@H](C)[C@H](NC(=O)[C@H](CO)NC(=O)[C@H](Cc1ccc(O)cc1)NC(=O)[C@H](CC(=O)O)NC(=O)[C@H](CO)NC(=O)[C@@H](NC(=O)[C@H](Cc1ccccc1)NC(=O)[C@@H](NC(=O)CNC(=O)[C@H](CCC(=O)O)NC(=O)[C@H](C)NC(=O)[C@H](Cc1ccc(O)cc1)NC(C)=O)[C@@H](C)O)[C@@H](C)CC)C(=O)N[C@@H](C)C(=O)N[C@@H](CCSC)C(=O)N[C@@H](CC(=O)O)C(=O)N[C@@H](CCCCN)C(=O)N[C@H](C(=O)N[C@@H](Cc1c[nH]cn1)C(=O)N[C@@H](CCC(N)=O)C(=O)N[C@@H](CCC(N)=O)C(=O)N[C@@H](CC(=O)O)C(=O)N[C@@H](Cc1ccccc1)C(=O)N[C@H](C(=O)N[C@@H](CC(N)=O)C(=O)N[C@@H](Cc1c[nH]c2ccccc12)C(=O)N[C@@H](CC(C)C)C(=O)N[C@@H](CC(C)C)C(=O)N[C@@H](C)C(=O)N[C@@H](CCC(N)=O)C(=O)N[C@@H](CCCCN)C(=O)NCC(=O)N[C@@H](CCCCN)C(=O)N[C@@H](CCCCN)C(=O)N[C@@H](CC(N)=O)C(=O)N[C@@H](CC(=O)O)C(=O)N[C@@H](Cc1c[nH]c2ccccc12)C(=O)N[C@@H](CCCCNC(=O)CN(CCN(CCN(CC(=O)O)CC(=O)O)CC(=O)O)CC(=O)O)C(=O)N[C@@H](Cc1c[nH]cn1)C(=O)N[C@@H](CC(N)=O)C(=O)N[C@H](C(=O)N[C@H](C(=O)N[C@@H](CCC(N)=O)C(=O)O)[C@@H](C)O)[C@@H](C)CC)C(C)C)[C@@H](C)CC` [[Lys^37(^111In-DTPA)]N-acetyl-GIP1-42, metal not drawn] showed a tissue uptake at 4 h (BALB/c nude, BHK-GIPR tumor, peptide doses ≤ 0.2 µg (0.04 nmol) per mouse, 4 hours post-injection, mean ± SD, n=5, read-out: tumor uptake) of 5.2 ± 1.4 %ID/g, a tissue uptake at 4 h (BALB/c nude, mouse, 0.5 ug/mouse, BHK-GIPR tumor, peptide dose 0.5 µg (0.1 nmol), 4 hours post-injection, mean ± SD, n=5, read-out: tumor uptake) of 2.4 ± 0.7 %ID/g and a tissue to tissue ratio at 4 h (mouse, 0.1 ug/mouse, BHK-GIPR tumor BALB/c nude mice, i.v., peptide dose 0.1 µg, 4 h p.i., mean n=5) of 143. It also gave a tissue to tissue ratio at 4 h (mouse, 0.2 ug/mouse, BHK-GIPR tumor BALB/c nude mice, i.v., peptide dose 0.2 µg, 4 h p.i., mean n=5) of 110, a tissue to tissue ratio at 4 h (mouse, 0.5 ug/mouse, BHK-GIPR tumor BALB/c nude mice, i.v., peptide dose 0.5 µg, 4 h p.i., mean n=5) of 52.6 and a tissue to tissue ratio at 4 h (mouse, 1 ug/mouse, BHK-GIPR tumor BALB/c nude mice, i.v., peptide dose 1 µg, 4 h p.i., mean n=5) of 50.3. It also gave a tissue uptake at 4 h (mouse, blood, 0.1 ug/mouse, BHK-GIPR tumor BALB/c nude mice, i.v., peptide dose 0.1 µg, 4 h p.i., mean n=5, read-out: Blood uptake) of 0.033 %ID/g, a tissue uptake at 4 h (mouse, blood, 0.2 ug/mouse, BHK-GIPR tumor BALB/c nude mice, i.v., peptide dose 0.2 µg, 4 h p.i., mean n=5, read-out: Blood uptake) of 0.047 %ID/g and a tissue uptake at 4 h (mouse, blood, 0.5 ug/mouse, BHK-GIPR tumor BALB/c nude mice, i.v., peptide dose 0.5 µg, 4 h p.i., mean n=5, read-out: Blood uptake) of 0.047 %ID/g. For the same molecule, the tissue uptake at 4 h (mouse, blood, 1 ug/mouse, BHK-GIPR tumor BALB/c nude mice, i.v., peptide dose 1 µg, 4 h p.i., mean n=5, read-out: Blood uptake) was 0.059 %ID/g, the tissue uptake at 4 h (mouse, blood, 2 ug/mouse, BHK-GIPR tumor BALB/c nude mice, i.v., peptide dose 2 µg, 4 h p.i., mean n=5, read-out: Blood uptake) was 0.066 %ID/g and the tissue uptake at 4 h (mouse, duodenum, 0.1 ug/mouse, BHK-GIPR tumor BALB/c nude mice, i.v., peptide dose 0.1 µg, 4 h p.i., mean n=5, read-out: Duodenum uptake) was 0.486 %ID/g. It also gave a tissue uptake at 4 h (mouse, duodenum, 0.2 ug/mouse, BHK-GIPR tumor BALB/c nude mice, i.v., peptide dose 0.2 µg, 4 h p.i., mean n=5, read-out: Duodenum uptake) of 0.573 %ID/g, a tissue uptake at 4 h (mouse, duodenum, 0.5 ug/mouse, BHK-GIPR tumor BALB/c nude mice, i.v., peptide dose 0.5 µg, 4 h p.i., mean n=5, read-out: Duodenum uptake) of 0.529 %ID/g and a tissue uptake at 4 h (mouse, duodenum, 1 ug/mouse, BHK-GIPR tumor BALB/c nude mice, i.v., peptide dose 1 µg, 4 h p.i., mean n=5, read-out: Duodenum uptake) of 0.75 %ID/g. The tissue uptake at 4 h (mouse, duodenum, 2 ug/mouse, BHK-GIPR tumor BALB/c nude mice, i.v., peptide dose 2 µg, 4 h p.i., mean n=5, read-out: Duodenum uptake) was 0.929 %ID/g, the tissue uptake at 4 h (mouse, heart, 0.1 ug/mouse, BHK-GIPR tumor BALB/c nude mice, i.v., peptide dose 0.1 µg, 4 h p.i., mean n=5, read-out: Heart uptake) was 0.133 %ID/g and the tissue uptake at 4 h (mouse, heart, 0.2 ug/mouse, BHK-GIPR tumor BALB/c nude mice, i.v., peptide dose 0.2 µg, 4 h p.i., mean n=5, read-out: Heart uptake) was 0.156 %ID/g. It also gave a tissue uptake at 4 h (mouse, heart, 0.5 ug/mouse, BHK-GIPR tumor BALB/c nude mice, i.v., peptide dose 0.5 µg, 4 h p.i., mean n=5, read-out: Heart uptake) of 0.163 %ID/g, a tissue uptake at 4 h (mouse, heart, 1 ug/mouse, BHK-GIPR tumor BALB/c nude mice, i.v., peptide dose 1 µg, 4 h p.i., mean n=5, read-out: Heart uptake) of 0.178 %ID/g and a tissue uptake at 4 h (mouse, heart, 2 ug, BHK-GIPR tumor BALB/c nude mice, i.v., peptide dose 2 µg, 4 h p.i., mean n=5, read-out: Heart uptake) of 0.173 %ID/g. For the same molecule, the tissue uptake at 4 h (mouse, kidney, 0.1 ug/mouse, BHK-GIPR tumor BALB/c nude mice, i.v., peptide dose 0.1 µg, 4 h p.i., mean n=5, read-out: Kidney uptake) was 237 %ID/g, the tissue uptake at 4 h (mouse, kidney, 0.2 ug/mouse, BHK-GIPR tumor BALB/c nude mice, i.v., peptide dose 0.2 µg, 4 h p.i., mean n=5, read-out: Kidney uptake) was 265 %ID/g and the tissue uptake at 4 h (mouse, kidney, 0.5 ug/mouse, BHK-GIPR tumor BALB/c nude mice, i.v., peptide dose 0.5 µg, 4 h p.i., mean n=5, read-out: Kidney uptake) was 214 %ID/g. For the same molecule, the tissue uptake at 4 h (mouse, kidney, 1 ug/mouse, BHK-GIPR tumor BALB/c nude mice, i.v., peptide dose 1 µg, 4 h p.i., mean n=5, read-out: Kidney uptake) was 287 %ID/g, the tissue uptake at 4 h (mouse, kidney, 2 ug/mouse, BHK-GIPR tumor BALB/c nude mice, i.v., peptide dose 2 µg, 4 h p.i., mean n=5, read-out: Kidney uptake) was 257 %ID/g and the tissue uptake at 4 h (mouse, liver, 0.1 ug/mouse, BHK-GIPR tumor BALB/c nude mice, i.v., peptide dose 0.1 µg, 4 h p.i., mean n=5, read-out: Liver uptake) was 1.6 %ID/g. It also gave a tissue uptake at 4 h (mouse, liver, 0.2 ug/mouse, BHK-GIPR tumor BALB/c nude mice, i.v., peptide dose 0.2 µg, 4 h p.i., mean n=5, read-out: Liver uptake) of 1.53 %ID/g, a tissue uptake at 4 h (mouse, liver, 0.5 ug/mouse, BHK-GIPR tumor BALB/c nude mice, i.v., peptide dose 0.5 µg, 4 h p.i., mean n=5, read-out: Liver uptake) of 1.55 %ID/g and a tissue uptake at 4 h (mouse, liver, 1 ug/mouse, BHK-GIPR tumor BALB/c nude mice, i.v., peptide dose 1 µg, 4 h p.i., mean n=5, read-out: Liver uptake) of 1.74 %ID/g. For the same molecule, the tissue uptake at 4 h (mouse, liver, 2 ug/mouse, BHK-GIPR tumor BALB/c nude mice, i.v., peptide dose 2 µg, 4 h p.i., mean n=5, read-out: Liver uptake) was 1.83 %ID/g, the tissue uptake at 4 h (mouse, lung, 0.1 ug, BHK-GIPR tumor BALB/c nude mice, i.v., peptide dose 0.1 µg, 4 h p.i., mean n=5, read-out: Lung uptake) was 0.364 %ID/g and the tissue uptake at 4 h (mouse, lung, 0.2 ug, BHK-GIPR tumor BALB/c nude mice, i.v., peptide dose 0.2 µg, 4 h p.i., mean n=5, read-out: Lung uptake) was 0.518 %ID/g. For the same molecule, the tissue uptake at 4 h (mouse, lung, 0.5 ug, BHK-GIPR tumor BALB/c nude mice, i.v., peptide dose 0.5 µg, 4 h p.i., mean n=5, read-out: Lung uptake) was 0.577 %ID/g, the tissue uptake at 4 h (mouse, lung, 1 ug, BHK-GIPR tumor BALB/c nude mice, i.v., peptide dose 1 µg, 4 h p.i., mean n=5, read-out: Lung uptake) was 0.608 %ID/g and the tissue uptake at 4 h (mouse, lung, 2 ug, BHK-GIPR tumor BALB/c nude mice, i.v., peptide dose 2 µg, 4 h p.i., mean n=5, read-out: Lung uptake) was 0.56 %ID/g.
